Consider 19 compounds from ChEMBL document CHEMBL3124869 (J Med Chem, 2014).

Data set [1] is described as follows: physchem. The following applies: octanol/water, pH 7.4.
A short description of data set [2]: in vitro. The following applies: human, liver microsomes.
Description: Apparent total intrinsic clearance in human liver microsomes
The nature of data set [3]: in vitro. The following applies: dog, MDCK.
Description: Intrinsic absorptive permeability from apical to basolateral side of dog RRCK cells
In data set [4] the target is Tyrosine-protein kinase Fes/Fps (Homo sapiens, UniProt P07332). In words: Inhibition of FES (unknown origin) using Km levels of ATP.
Data set [5] deals with Proto-oncogene tyrosine-protein kinase ROS (Homo sapiens, UniProt P08922). Description: Inhibition of ROS1 (unknown origin) by Pfizer mobility shift assay.
Data set [6] is described as follows: Half life in rat at 1 mg/kg, iv. The data set is classed as ADME, organism-based. More on the design: dose 1 mg/kg, route intravenous. The following applies: in vivo.
Data set [7] deals with Activated CDC42 kinase 1 (Homo sapiens, UniProt Q07912).
The target in data set [8] is Leukocyte tyrosine kinase receptor (Homo sapiens, UniProt P29376). In words: Inhibition of LTK (unknown origin) using Km levels of ATP.
Data set [9] concerns the target NT-3 growth factor receptor (Homo sapiens, UniProt Q16288). Description: Inhibition of NTRK3 (unknown origin) using Km levels of ATP.
Data set [10] is described as follows: Antitumor activity against human NCI-H3122 cells harboring ALK L1196M mutant xenografted in athymic nu/nu mouse assessed as tumor growth regression at 50 mg/kg, po bid administered via gavage starting on day 15 post tumor implantation measured on day 27. The data set is classed as functional.
Data set [11] has as its system Mus musculus. In words: Toxicity in po dosed athymic nu/nu mouse xenografted with human NCI-H3122 cells harboring ALK L1196M mutant assessed as body weight reduction administered via gavage starting on day 15 post tumor implantation. The data set is classed as organism-based. As to conditions: in vivo.
Data set [12] is described as follows: AUC in rat at 5 mg/kg, po. The data set is classed as ADME, organism-based. The arrangement: dose 5 mg/kg, route oral. As to conditions: plasma.
Data set [13] in a line: AUC in rat at 1 mg/kg, iv. The data set is classed as ADME, organism-based. The arrangement: dose 1 mg/kg, route intravenous. As to conditions: plasma.
Data set [14] deals with Focal adhesion kinase 1 (Homo sapiens, UniProt Q05397). Description: Inhibition of PTK2 (unknown origin) using Km levels of ATP.
Data set [15] can be described thus: Antitumor activity against human NCI-H3122 cells harboring ALK L1196M mutant xenografted in athymic nu/nu mouse assessed as tumor total growth inhibition at 30 mg/kg, po qd administered via gavage starting on day 15 post tumor implantation. The data set is classed as functional. The following applies: NCI-H3122, 360 h, read-out: TGI.
Data set [16] addresses High affinity nerve growth factor receptor (Homo sapiens, UniProt P04629). In words: Inhibition of NTRK1 (unknown origin) using Km levels of ATP.
The nature of data set [17]: Cmax in rat at 5 mg/kg, po. The data set is classed as ADME, organism-based. More on the design: dose 5 mg/kg, route oral. As to conditions: in vivo.
Data set [18] can be described thus: Oral bioavailability in rat at 5 mg/kg. The data set is classed as ADME, organism-based. As to conditions: in vivo.
The nature of data set [19]: Tmax in rat at 5 mg/kg, po. As to conditions: in vivo. The data set is classed as ADME, organism-based. More on the design: dose 5 mg/kg, route oral.
Data set [20] concerns the target BDNF/NT-3 growth factors receptor (Homo sapiens, UniProt Q16620). Description: Inhibition of NTRK2 (unknown origin) using Km levels of ATP.
The target in data set [21] is Tyrosine-protein kinase Fer (Homo sapiens, UniProt P16591). Description: Inhibition of FER (unknown origin) using Km levels of ATP.
Data set [22] can be described thus: Volume of distribution at steady state in rat at 1 mg/kg, iv. The data set is classed as ADME, organism-based. The following applies: in vivo, read-out: Vdss. More on the design: dose 1 mg/kg, route intravenous.
The nature of data set [23]: Plasma clearance in rat at 1 mg/kg, iv. The data set is classed as ADME, organism-based. More on the design: dose 1 mg/kg, route intravenous.
Data set [24] can be described thus: Antitumor activity against human NCI-H3122 cells harboring ALK L1196M mutant xenografted in athymic nu/nu mouse assessed as tumor total growth inhibition at 15 mg/kg, po bid administered via gavage starting on day 15 post tumor implantation. As to conditions: NCI-H3122, 360 h, read-out: TGI. The data set is classed as functional.
Data set [25] addresses T1, ALK tyrosine kinase receptor (Homo sapiens, UniProt Q9UM73, L1196M).
Data set [26] concerns the target T1, ALK tyrosine kinase receptor. The source holds these as a separate data set.

`Cc1nc([C@@](C)(O)CO)sc1-c1cnc(N)c(O[C@H](C)c2cc(F)ccc2-n2nccn2)c1` had a logD in data set [1] of 2.9. In addition, in data set [2], the CLint scaled is 15 mL/min/kg. The same compound came in with a Papp A→B in data set [3] of 17 ×10⁻⁶ cm/s.

Take `C[C@@H](Oc1cc(-c2cn(C)nc2C#N)cnc1N)c1cc(F)ccc1-n1nccn1`: the logD in data set [1] was determined as 3.3. The compound also yielded a CLint scaled in data set [2] of 22 mL/min/kg. For the same compound, the Papp A→B in [3] was found to be 18 ×10⁻⁶ cm/s.

In data set [1], `C[C@@H](Oc1cc(-c2ccnn2C)cnc1N)c1cc(F)ccc1-n1nccn1` returned a logD of 3.3. The compound further yielded a CLint scaled in [2] of 17 mL/min/kg. Besides, the Papp A→B in [3] was determined as 22 ×10⁻⁶ cm/s.

The compound `C[C@@H](Oc1cc(-c2cnnn2C)cnc1N)c1cc(F)ccc1-n1nccn1` returned a logD in [1] of 2.4. In [2], this compound displayed an intrinsic clearance (CLint scaled) of 3 mL/min/kg. The Papp A→B in data set [3] stood at 24 ×10⁻⁶ cm/s.

As for `COc1ncccc1-c1cnc(N)c(O[C@H](C)c2cc(F)ccc2-n2nccn2)c1`, the logD in data set [1] was determined as 3.7. The same compound showed a CLint scaled in [2] of 38 mL/min/kg. Also, the Papp A→B in data set [3] came out at 14 ×10⁻⁶ cm/s.

For the compound `COc1ncncc1-c1cnc(N)c(O[C@H](C)c2cc(F)ccc2-n2nccn2)c1`, in data set [1], the logD amounted to 3.1. Moreover, the CLint scaled in [2] turned out to be 49 mL/min/kg. The same compound displayed a Papp A→B in [3] of 22 ×10⁻⁶ cm/s.

The compound `Cc1nc(C(C)(C)O)ccc1-c1cnc(N)c(O[C@H](C)c2cc(F)ccc2-n2nccn2)c1` returned a logD in data set [1] of 3.6. The compound also returned a CLint scaled in data set [2] of 49 mL/min/kg. This compound also yielded an apical-to-basolateral permeability (Papp A→B) in data set [3] of 14 ×10⁻⁶ cm/s.

Regarding `Cc1nc(C(C)(C)O)sc1-c1cnc(N)c(O[C@H](C)c2cc(F)ccc2-n2nccn2)c1`, in data set [1], the logD was 3.6. Further, the CLint scaled in data set [2] is 23 mL/min/kg. In data set [3], the Papp A→B turned out to be 18 ×10⁻⁶ cm/s.

Turning to `Cc1nccn1-c1cnc(N)c(O[C@H](C)c2cc(F)ccc2-n2nccn2)c1`, the log distribution coefficient (logD) in data set [1] stood at 2.4. The compound further yielded a CLint scaled in data set [2] of 80 mL/min/kg. The apical-to-basolateral permeability (Papp A→B) in data set [3] was 21 ×10⁻⁶ cm/s.

`Cc1nc(C2(O)CN(C)C2)sc1-c1cnc(N)c(O[C@H](C)c2cc(F)ccc2-n2nccn2)c1`: the logD in [1] is 2.6. In data set [2], this compound had a CLint scaled of 55 mL/min/kg. Moreover, the Papp A→B in data set [3] was 3.4 ×10⁻⁶ cm/s.

In [1], `Cc1nc(C2(O)CCS(=O)(=O)C2)sc1-c1cnc(N)c(O[C@H](C)c2cc(F)ccc2-n2nccn2)c1` (stereo not given in full) registered a logD of 3.2. The compound also registered a CLint scaled in data set [2] of 13 mL/min/kg. In addition, in data set [3], the Papp A→B is 14 ×10⁻⁶ cm/s.

As to `Cc1nc([C@](C)(O)CO)sc1-c1cnc(N)c(O[C@H](C)c2cc(F)ccc2-n2nccn2)c1`, the IC50 in data set [4] was 5 nM; in data set [7] it was 15 nM; in data set [8] it was 2 nM; in [9] it was 18 nM; in data set [14] it was 16 nM; in data set [16] it was 17 nM. In addition, the results for the IC50 in data set [20] and in data set [21] were 4 nM and 2 nM, respectively. Moreover, the Ki in [5] was 0.02 nM. The compound further had a half-life in data set [6] of 0.9 h. Also, the Activity in data set [10] is on record as 56%; in data set [11] it was “Non-toxic”. The compound also displayed a logD in [1] of 2.9. Besides, the AUC in [12] was 2.87 µM·h; in data set [13], 0.667 µM·h. This compound displayed a CLint scaled in data set [2] of 15 mL/min/kg. Moreover, in data set [15], the inhibition in vivo at 30 mg/kg worked out at 100%. The Papp A→B in [3] is 19 ×10⁻⁶ cm/s. Also, in [17], the Cmax turned out to be 568 nM. Moreover, the bioavailability in data set [18] amounted to 86%. The Tmax in [19] is 1.3 h. The Vd in [22] is 2 L/kg. Moreover, the clearance in data set [23] was found to be 54 mL/min/kg. Moreover, the inhibition in vivo at 15 mg/kg in data set [24] is 100%.

Compound `C[C@@H](Oc1cc(-c2cnn(C3CCNCC3)c2)cnc1N)c1cc(F)ccc1Cl` showed a Ki in [25] of 5 nM. For the same compound, the logD in data set [1] stood at 1.7. For the same compound, the CLint scaled in data set [2] is 27 mL/min/kg. Also, the Papp A→B in data set [3] was 2.3 ×10⁻⁶ cm/s. In addition, in [26], 387 nM corresponded to half-maximal inhibition (IC50).

In data set [1], `Cc1n[nH]cc1-c1cnc(N)c(O[C@H](C)c2cc(F)ccc2F)c1` came in with a logD of 3.4. Moreover, in [2], the CLint scaled stood at 31 mL/min/kg. The compound further gave a Papp A→B in data set [3] of 18 ×10⁻⁶ cm/s.

In data set [1], `Cc1n[nH]cc1-c1cnc(N)c(O[C@@H](C)c2cc(F)ccc2C#N)c1` displayed a logD of 2.7. The same compound showed a CLint scaled in [2] of 37 mL/min/kg. For the same compound, in data set [3], the Papp A→B was 20 ×10⁻⁶ cm/s.

`COc1ccc(F)cc1[C@@H](C)Oc1cc(-c2c[nH]nc2C)cnc1N` came in with a logD in [1] of 3.5. Further, the CLint scaled in data set [2] turned out to be 65 mL/min/kg. The Papp A→B in data set [3] is 14 ×10⁻⁶ cm/s.

On to `Cc1n[nH]cc1-c1cnc(N)c(O[C@H](C)c2cc(F)ccc2-n2nccn2)c1`, for which, in data set [1], the logD was 3.3. This compound also had a CLint scaled in data set [2] of 46 mL/min/kg. In data set [3], this compound gave a Papp A→B of 21 ×10⁻⁶ cm/s.

In [1], `Cc1nn(C)cc1-c1cnc(N)c(O[C@H](C)c2cc(F)ccc2-n2nccn2)c1` showed a logD of 3.4. This compound also registered a CLint scaled in data set [2] of 68 mL/min/kg. The Papp A→B in data set [3] amounted to 27 ×10⁻⁶ cm/s.

On to `Cc1nc(C2(O)CCOC2)sc1-c1cnc(N)c(O[C@H](C)c2cc(F)ccc2-n2nccn2)c1` (single isomer, unassigned), for which the logD in data set [1] was found to be 3.3. This compound showed a CLint scaled in data set [2] of 138 mL/min/kg. Also, the Papp A→B in [3] turned out to be 21 ×10⁻⁶ cm/s.
